The numbers were not newly measured in US20030212138A1, “Combinations of peroxisome proliferator-activated receptor-alpha agonists and cyclooxygenase-2 selective inhibitors and therapeutic uses therefor” (Pharmacia Corporation, priority 2002, published 2003), which cites them from elsewhere.

This data set relates to fibroblast growth factor-induced corneal angiogenesis. To be noted: rats; Masferrer et al. 1999.

Consider `Cc1ccc(-c2cc(C(F)(F)F)nn2-c2ccc(S(N)(=O)=O)cc2)cc1` [Celecoxib®, 4-[5-(4-methylphenyl)-3-(trifluoromethyl)-1H-pyrazol-1-yl]benzenesulfonamide], for which the “inhibition of fibroblast growth factor-induced corneal angiogenesis” value is “potent inhibition”.
